Paper PMC7531601, “Exploiting Lactoferricin (17–30) as a Potential Antimicrobial and Antibiofilm Candidate Against Multi-Drug-Resistant Enteroaggregative Escherichia coli” (Frontiers in Microbiology, 2020)
Converted amounts (≈) assume the structure as drawn.

Assays:
MDR-EAEC isolates [1] = experiment: In vitro antibiotic susceptibility testing of MDR-EAEC isolates; assay type: cell-based, enteroaggregative Escherichia coli; parameters: key to Antibiotic Susceptibility testing / MIC Values (mg/L), given as class symbol: S – Sensitive; R- Resistant; details: for MIC: Escherichia coli
Description: E. coli ATCC 25922 was used as the quality control strain for antibiotic susceptibility testing.

MDR-EAEC isolates [2] = experiment: In vitro time-kill kinetics; assay type: cell-based, enteroaggregative Escherichia coli; details: 10 μg/ml, ca. 1 × 10^7 CFU/ml, CA-MH broth, 37°C
Description: The in vitro dose- and time-kill kinetics was assessed by co-incubating the log-phase cultures of each of MDR-EAEC isolates (ca. 1 × 10^7 CFU/ml) in cation-adjusted Mueller Hinton (CA-MH) broth with MIC (1 × and 2 × ) of Lfcin (17–30) (Supplementary Information S6). The desired inoculum for each MDR-EAEC strain and Lfcin (17–30) suspended in CA-MH broth was as follows: Group I, 10^7 CFU of MDR-EAEC (50 μl) with 1 × MIC of Lfcin (17–30) (50 μl); Group II, 10^7 CFU of MDR-EAEC (50 μl) with 2 × MIC of Lfcin (17–30) (50 μl); Group III, 10^7 CFU of MDR-EAEC (50 μl) with 10 μg/ml of Meropenem (50 μl); and Group IV, 10^7 CFU of MDR-EAEC (50 μl) in CA-MH broth (50 μl). The MDR-EAEC counts were enumerated ([Miles et al., 1938]) at 0, 30, 60, 90, 120, 150, and 180 min, and 24, 48, and 72 h post co-incubation.
FIGURE 2 Dose- and time-dependent time-kill assay of MDR-EAEC isolates co-cultured with Lfcin (17–30). MDR-EAEC isolates (n = 3) were co-cultured with 1 × MIC of Lfcin (17–30) (A) and 2 × MIC of Lfcin (17–30) (B) in CA-MH broth at 37°C under static conditions with respective controls of MDR-EAEC isolates (untreated and meropenem-treated). Data expressed as the mean ± standard deviation (log10CFU/ml) of three independent experiments (***P < 0.001). […]

[3] = tested on: G. mellonella larvae infected with MDR-EAEC (a cocktail of three strains); experiment: G. mellonella larval survival; assay type: in vivo, Galleria mellonella; details: larvae infected with LD50 dose (10^6 CFU) of MDR-EAEC, MIC dose 3 h pi, up to 120 h pi, 40 larvae per group
Description: The final instar of G. mellonella larvae was utilized for performing the in vivo assays ([Morgan et al., 2014]). The larvae (ca. 200–250 mg) inoculated with aliquots of MDR-EAEC suspensions (10 μl) by injection using Hamilton syringe (26 gauge) via the last right pro-leg were incubated at 37°C and the observations were noted. The larvae kept in a sterile environment were provided with ad lib food during the experiment.
The determined LD50 dose for each MDR-EAEC strain in the larvae was validated and employed further in the in vivo experiments to evaluate the antibacterial efficacy of Lfcin (17–30).
Galleria mellonella larvae were grouped 40 per group for in vivo antimicrobial testing of Lfcin (17–30) as follows: group I (MDR-EAEC infection control), groups II and III (infection + treatment groups), group IV (PBS control), and group V [Lfcin(17–30) control]. Optimized LD50 dose of MDR-EAEC (a cocktail of three strains) was administered to larvae of groups I to III, while MIC dose of Lfcin (17–30) and Meropenem was administered 3 h post-infection (pi) in groups II and III, respectively. Larval group IV was injected with sterile PBS, whereas MIC dose of Lfcin (17–30) was administered in group V. […]

G. mellonella larvae = experiment: LDH cytotoxicity assay of larval haemolymph; assay type: in vivo, Galleria mellonella; details: infected larvae treated 3 h pi
Description: Galleria mellonella larvae were grouped 40 per group for in vivo antimicrobial testing of Lfcin (17–30) as follows: group I (MDR-EAEC infection control), groups II and III (infection + treatment groups), group IV (PBS control), and group V [Lfcin(17–30) control]. Optimized LD50 dose of MDR-EAEC (a cocktail of three strains) was administered to larvae of groups I to III, while MIC dose of Lfcin (17–30) and Meropenem was administered 3 h post-infection (pi) in groups II and III, respectively. Larval group IV was injected with sterile PBS, whereas MIC dose of Lfcin (17–30) was administered in group V.
The larvae were then observed for their survival rate, melanization (Supplementary Information S7), MDR-EAEC counts (Supplementary Information S8), hemocyte density (Supplementary Information S9) ([Wand et al., 2013]), lactate dehydrogenase (LDH) cytotoxicity assay (Supplementary Information S10) ([Gibreel and Upton, 2013]), and histopathology (Supplementary Information S11) ([Perdoni et al., 2014]), at an interval of 6 h till 24 h, followed by 24-h interval up to 120 h pi.
G. mellonella (n=3 larvae per group) were analysed for the production of LDH, as a marker of cell damage, at an interval of 6 h pi for 24 h, followed by 24 h interval till 96 h pi using QuantiChrom LDH cytotoxicity assay kit, according to the manufacturer’s instructions. The positive and negative controls used in this study were […]. The absorbance was read using ELISA plate reader at 500 nm; the haemolymph from untreated larvae served as background control and the cytotoxicity was calculated as, Cytotoxicity (%) = (ODSample - ODControl)/ (ODTotal Lysis - ODControl) x 100, wherein, sample is the control absorbance of treated cell; control is the experimental absorbance of the untreated cell control and total lysis is the absorbance of Triton X-100 treated cells.

Compound	MIC (MDR-EAEC isolates [1]; KY941937.1 (MDR 2)) [mg/L]	MIC (MDR-EAEC isolates [1]; KY941938.1 (MDR 3)) [mg/L]	Antibiotic Susceptibility testing (MDR-EAEC isolates [1]; KY941936.1 (MDR 1))	Antibiotic Susceptibility testing (MDR-EAEC isolates [1]; KY941937.1 (MDR 2))	Antibiotic Susceptibility testing (MDR-EAEC isolates [1]; KY941938.1 (MDR 3))	MIC Values (mg/L), given as class symbol (MDR-EAEC isolates [1]; KY941936.1 (MDR 1))	MIC Values (mg/L), given as class symbol (MDR-EAEC isolates [1]; KY941937.1 (MDR 2))	MIC Values (mg/L), given as class symbol (MDR-EAEC isolates [1]; KY941938.1 (MDR 3))	other results
CC1(C)S[C@@H]2[C@H](NC(=O)[C@H](N)c3ccccc3)C(=O)N2[C@H]1C(=O)O [AMP, Ampicillin]	> 240	> 240	R	R	R	–	–	–	MIC (MDR-EAEC isolates [1]; KY941936.1 (MDR 1)): > 240 mg/L
O=C(O)c1cn(C2CC2)c2cc(N3CCNCC3)c(F)cc2c1=O [CIP, Ciprofloxacin]	120 (≈ 362 µM)	60 (≈ 181 µM)	S	R	R	–	–	–	–
O=C(N[C@H](CO)[C@H](O)c1ccc([N+](=O)[O-])cc1)C(Cl)Cl [CL, Chloramphenicol]	–	–	S	S	S	S	S	S	–
CO/N=C(\C(=O)N[C@@H]1C(=O)N2C(C(=O)O)=C(CSc3nc(=O)c(=O)[nH]n3C)CS[C@H]12)c1csc(N)n1 [CTR, Ceftriaxone]	> 240	> 240	S	R	R	S	–	–	–
CNC(C)C1CCC(N)C(OC2C(N)CC(N)C(OC3OCC(C)(O)C(NC)C3O)C2O)O1 (stereo not drawn) [GEN, Gentamicin]	–	–	S	S	S	S	S	S	–
C[C@@H](O)[C@H]1C(=O)N2C(C(=O)O)=C(SCCN=CN)C[C@H]12 [IMI, Imipenem]	–	–	S	S	S	S	S	S	–
Cc1cc(NS(=O)(=O)c2ccc(N)cc2)no1 [SXT, Sulfamethoxazole]	–	–	R	S	R	–	–	–	–
CN(C)[C@@H]1C(O)=C(C(N)=O)C(=O)[C@@]2(O)C(O)=C3C(=O)c4c(O)cccc4[C@@](C)(O)[C@H]3C[C@@H]12 [TE, Tetracycline]	2 (≈ 4.5 µM)	30 (≈ 67.5 µM)	R	R	R	–	–	–	MIC (MDR-EAEC isolates [1]; KY941936.1 (MDR 1)): 60 mg/L (≈ 135 µM)
C[C@@H](O)[C@H]1C(=O)N2C(C(=O)O)=C(S[C@@H]3CN[C@H](C(=O)N(C)C)C3)[C@H](C)[C@H]12 [meropenem, reference compound]	–	–	–	–	–	–	–	–	reduction in bacterial counts at 30 min post-coincubation (MDR-EAEC isolates [2]): highly significant (P < 0.001) reduction; time post-coincubation after which complete inhibition (MDR-EAEC isolates [2]): 60 min; survival rate [3]: 85%; LDH cytotoxicity (G. mellonella larvae): Almost similar observations
Co-trimoxazole [COT]	–	–	R	R	R	–	–	–	MIC Values (MDR-EAEC isolates [1]; KY941936.1 (MDR 1)): >240 mg/L; MIC Values (MDR-EAEC isolates [1]; KY941937.1 (MDR 2)): >240 mg/L; MIC Values (MDR-EAEC isolates [1]; KY941938.1 (MDR 3)): >240 mg/L
Colistin sulphate	–	–	S	S	S	S	S	S	–
